{"source": "patent US20060069132A1", "about": "“Azolecarboxamide herbicides” (priority 2004, published 2006)", "key": {"large crabgrass": {"tested_on": "large crabgrass", "assay": "Test B pre-/postemergence herbicide test", "assay_type": "in vivo, Digitaria sanguinalis", "conditions": "for Crabgrass, Large plant response rating: postemergence", "how_it_was_run": "(§1)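 Formulation: non-phytotoxic solvent mix with surfactant. Timing: preemergence on seed and postemergence on 2–18 cm plants, applied concurrently. Readout after 13–15 d greenhouse: visual 0–100 control rating against controls.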"}, "ducksalad [1]": {"tested_on": "ducksalad", "assay": "Test C flooded paddy test", "assay_type": "in vivo, Heteranthera limosa"}, "[2]": {"tested_on": "smallflower umbrella sedge", "assay": "Test C flooded paddy test", "assay_type": "in vivo, Cyperus difformis"}, "Surinam grass": {"tested_on": "Surinam grass", "assay": "Test B pre-/postemergence herbicide test", "assay_type": "in vivo, Urochloa decumbens", "conditions": "for Surinam Grass plant response rating: postemergence", "how_it_was_run": "as §1"}, "corn": {"tested_on": "corn", "assay": "Test B pre-/postemergence herbicide test", "assay_type": "in vivo, Zea mays", "conditions": "for Corn plant response rating: postemergence", "how_it_was_run": "as §1"}, "barnyardgrass [3]": {"tested_on": "barnyardgrass", "assay": "Test B flooded paddy test", "assay_type": "in vivo, Echinochloa crus-galli", "conditions": "1000 g ai/ha, scale 0 to 100 (0 no effect, 100 complete control)", "how_it_was_run": "(§2)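 Postemergence plants were sprayed with formulated test chemicals at 2 to 18 cm height (1- to 4-leaf stage); paddy species were grown to the 2-leaf stage. After 13 to 15 days in a greenhouse, injury was rated visually against untreated controls on a 0–100 scale (0 = no effect, 100 = complete control).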"}, "barnyardgrass [4]": {"tested_on": "barnyardgrass", "assay": "Test C flooded paddy test", "assay_type": "in vivo, Echinochloa crus-galli", "how_it_was_run": "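Ratings (0 = no effect, 100 = complete control) come from visual comparison with untreated plants after 12 to 14 days in the greenhouse. Treatment was postemergence at the 1- to 4-leaf stage (2–18 cm), or at the 2-leaf stage for the flooded paddy barnyardgrass.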"}, "ducksalad [5]": {"tested_on": "ducksalad", "assay": "Test B flooded paddy test", "assay_type": "in vivo, Heteranthera limosa", "conditions": "1000 g ai/ha, scale 0 to 100 (0 no effect, 100 complete control)", "how_it_was_run": "as §2"}, "velvetleaf": {"tested_on": "velvetleaf", "assay": "Test B pre-/postemergence herbicide test", "assay_type": "in vivo, Abutilon theophrasti", "conditions": "for Velvetleaf plant response rating: postemergence", "how_it_was_run": "as §1"}, "rice [6]": {"tested_on": "rice", "assay": "Test C flooded paddy test", "assay_type": "in vivo, Oryza sativa", "how_it_was_run": "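Plants were grown to the 1- to 4-leaf stage (2–18 cm) and then treated postemergence, or grown to the 2-leaf stage for the flooded paddy test. They were held in a greenhouse for 12 to 14 days and then scored by eye against controls, where 0 is no effect and 100 is complete control.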"}, "[7]": {"tested_on": "small flower umbrella sedge", "assay": "Test B flooded paddy test", "assay_type": "in vivo, Cyperus difformis", "conditions": "1000 g ai/ha, scale 0 to 100 (0 no effect, 100 complete control)", "how_it_was_run": "as §2"}, "giant foxtail": {"tested_on": "giant foxtail", "assay": "Test B pre-/postemergence herbicide test", "assay_type": "in vivo, Setaria faberi", "conditions": "for Foxtail, Giant plant response rating: postemergence", "how_it_was_run": "as §1"}, "cocklebur": {"tested_on": "cocklebur", "assay": "Test B pre-/postemergence herbicide test", "assay_type": "in vivo, Xanthium strumarium", "conditions": "for Cocklebur plant response rating: postemergence", "how_it_was_run": "(§3)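 Seeds were planted and treated preemergence with compounds formulated in a non-phytotoxic solvent mixture containing surfactant, while plants at the 1- to 4-leaf stage (2 to 18 cm) received postemergence sprays. Flooded paddy plants were grown to the 2-leaf stage. After 13 to 15 days in a greenhouse, injury was visually rated 0–100 against untreated controls.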"}, "wild oat": {"tested_on": "wild oat", "assay": "Test B postemergence herbicide test", "assay_type": "in vivo, Avena fatua", "conditions": "postemergence", "how_it_was_run": "(§4)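 Each value is a visual 0–100 response rating taken against controls 13 to 15 days after treatment in the greenhouse. Plants received formulated chemical postemergence at the 1- to 4-leaf stage or, in flooded paddy, at the 2-leaf stage.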"}, "wheat": {"tested_on": "wheat", "assay": "Test B postemergence herbicide test", "assay_type": "in vivo, Triticum aestivum", "parameters": "key to Wheat plant response rating: 0 = no effect, 100 = complete control", "conditions": "postemergence", "how_it_was_run": "as §4"}, "morningglory": {"tested_on": "morningglory", "assay": "Test B pre-/postemergence herbicide test", "assay_type": "in vivo, Ipomoea coccinea", "conditions": "for Morningglory plant response rating: postemergence", "how_it_was_run": "as §3"}, "lambsquarters": {"tested_on": "lambsquarters", "assay": "Test B pre-/postemergence herbicide test", "assay_type": "in vivo, Chenopodium album", "conditions": "for Lambsquarters plant response rating: postemergence", "how_it_was_run": "as §1"}, "blackgrass": {"tested_on": "blackgrass", "assay": "Test B postemergence herbicide test", "assay_type": "in vivo, Alopecurus myosuroides", "conditions": "postemergence", "how_it_was_run": "as §2"}, "barnyardgrass [8]": {"tested_on": "barnyardgrass", "assay": "Test B pre-/postemergence herbicide test", "assay_type": "in vivo, Echinochloa crus-galli", "conditions": "for Barnyardgrass plant response rating: postemergence", "how_it_was_run": "as §3"}, "rice [9]": {"tested_on": "rice", "assay": "Test B pre-/postemergence herbicide test", "assay_type": "in vivo, Oryza sativa", "conditions": "0 = no effect, 100 = complete control, preemergence", "how_it_was_run": "as §1"}, "rice [10]": {"tested_on": "rice", "assay": "Test B flooded paddy test", "assay_type": "in vivo, Oryza sativa", "conditions": "1000 g ai/ha, scale 0 to 100 (0 no effect, 100 complete control)", "how_it_was_run": "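Scale 0–100: zero equals no visible effect, 100 complete control, judged by eye relative to controls. Timing: 13 to 15 days in greenhouse post-treatment. Growth stage at spraying: two leaves (paddy) or one to four leaves, 2–18 cm (postemergence).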"}, "pigweed": {"tested_on": "pigweed", "assay": "Test B pre-/postemergence herbicide test", "assay_type": "in vivo, Amaranthus retroflexus", "conditions": "for Pigweed plant response rating: postemergence", "how_it_was_run": "as §1"}, "[11]": {"conditions": "125 g ai/ha, 0 = no effect, 100 = complete control, preemergence"}, "[12]": {"conditions": "125 g ai/ha, visual rating, scale 0 (no effect) to 100 (complete control)"}, "[13]": {"conditions": "500 g ai/ha, visual rating, 0 = no effect, 100 = complete control, preemergence"}, "[14]": {"conditions": "500 g ai/ha, scale 0 to 100, 0 is no effect, 100 is complete control"}, "[15]": {"conditions": "125 g ai/ha, scale 0 to 100 (0 no effect, 100 complete control)"}, "[16]": {"conditions": "250 g ai/ha, scale of 0 to 100, 0 is no effect, 100 is complete control"}, "[17]": {"conditions": "500 g ai/ha, visual rating after 12 to 14 days, scale 0 to 100 (0 no effect, 100 complete control)"}}}
{"smiles": "C#CCNC(=O)c1ccc(F)c(NC(=O)c2cc(C3(C)CC3)nn2CC)c1", "note": "[Compound 302]", "values": [{"measurement": "Crabgrass, Large plant response rating (0 to 100 scale)", "setting": "large crabgrass; [11]", "result": 70}, {"measurement": "Crabgrass, Large plant response rating", "setting": "large crabgrass; [12]", "result": 0}, {"measurement": "Plant response rating, Crabgrass, Large", "setting": "large crabgrass; [13]", "result": 100}, {"measurement": "Crabgrass, Large plant response rating", "setting": "large crabgrass; [14]", "result": 10}, {"measurement": "Ducksalad plant response rating", "setting": "ducksalad [1]; 62 g ai/ha, scale 0 to 100", "result": 0}, {"measurement": "Ducksalad plant response rating", "setting": "ducksalad [1]; [15]", "result": 25}, {"measurement": "Ducksalad plant response rating", "setting": "ducksalad [1]; [16]", "result": 30}, {"measurement": "Plant response rating, Ducksalad", "setting": "ducksalad [1]; [17]", "result": 85}, {"measurement": "Sedge, Umbrella plant response rating", "setting": "[2]; 62 g ai/ha, scale 0 to 100", "result": 15}, {"measurement": "Sedge, Umbrella plant response rating", "setting": "[2]; [15]", "result": 50}, {"measurement": "Sedge, Umbrella plant response rating", "setting": "[2]; [16]", "result": 75}, {"measurement": "Plant response rating, Sedge, Umbrella", "setting": "[2]; [17]", "result": 85}, {"measurement": "Surinam Grass plant response rating (0 to 100 scale)", "setting": "Surinam grass; [11]", "result": 10}, {"measurement": "Surinam Grass plant response rating", "setting": "Surinam grass; [12]", "result": 0}, {"measurement": "Plant response rating, Surinam Grass", "setting": "Surinam grass; [13]", "result": 30}, {"measurement": "Surinam Grass plant response rating", "setting": "Surinam grass; [14]", "result": 10}, {"measurement": "Corn plant response rating (0 to 100 scale)", "setting": "corn; [11]", "result": 0}, {"measurement": "Corn plant response rating", "setting": "corn; [12]", "result": 10}, {"measurement": "Plant response rating, Corn", "setting": "corn; [13]", "result": 10}, {"measurement": "Corn plant response rating", "setting": "corn; [14]", "result": 50}, {"measurement": "Barnyardgrass plant response rating", "setting": "barnyardgrass [3]", "result": 70}, {"measurement": "Barnyardgrass plant response rating", "setting": "barnyardgrass [4]; 62 g ai/ha, scale 0 to 100 (0 no effect, 100 complete control)", "result": 0}, {"measurement": "Barnyardgrass plant response rating", "setting": "barnyardgrass [4]; [15]", "result": 0}, {"measurement": "Barnyardgrass plant response rating", "setting": "barnyardgrass [4]; [16]", "result": 10}, {"measurement": "Plant response rating, Barnyardgrass", "setting": "barnyardgrass [4]; [17]", "result": 35}, {"measurement": "Ducksalad plant response rating", "setting": "ducksalad [5]", "result": 90}, {"measurement": "Velvetleaf plant response rating", "setting": "velvetleaf; [12]", "result": 10}, {"measurement": "Plant response rating, Velvetleaf", "setting": "velvetleaf; [13]", "result": 80}, {"measurement": "Velvetleaf plant response rating", "setting": "velvetleaf; [14]", "result": 10}, {"measurement": "Rice plant response rating", "setting": "rice [6]; 62 g ai/ha, scale 0 to 100", "result": 0}, {"measurement": "Rice plant response rating", "setting": "rice [6]; [15]", "result": 0}, {"measurement": "Rice plant response rating", "setting": "rice [6]; [16]", "result": 0}, {"measurement": "Plant response rating, Rice", "setting": "rice [6]; [17]", "result": 55}, {"measurement": "Sedge, Umbrella plant response rating", "setting": "[7]", "result": 80}, {"measurement": "Foxtail, Giant plant response rating (0 to 100 scale)", "setting": "giant foxtail; [11]", "result": 0}, {"measurement": "Foxtail, Giant plant response rating", "setting": "giant foxtail; [12]", "result": 0}, {"measurement": "Plant response rating, Foxtail, Giant", "setting": "giant foxtail; [13]", "result": 30}, {"measurement": "Foxtail, Giant plant response rating", "setting": "giant foxtail; [14]", "result": 20}, {"measurement": "Cocklebur plant response rating (0 to 100 scale)", "setting": "cocklebur; [11]", "result": 0}, {"measurement": "Cocklebur plant response rating", "setting": "cocklebur; [12]", "result": 10}, {"measurement": "Plant response rating, Cocklebur", "setting": "cocklebur; [13]", "result": 0}, {"measurement": "Cocklebur plant response rating", "setting": "cocklebur; [14]", "result": 10}, {"measurement": "Oat, Wild plant response rating", "setting": "wild oat; [12]", "result": 0}, {"measurement": "Oat, Wild plant response rating", "setting": "wild oat; [14]", "result": 10}, {"measurement": "Wheat plant response rating", "setting": "wheat; [12]", "result": 0}, {"measurement": "Wheat plant response rating", "setting": "wheat; [14]", "result": 10}, {"measurement": "Morningglory plant response rating (0 to 100 scale)", "setting": "morningglory; [11]", "result": 0}, {"measurement": "Morningglory plant response rating", "setting": "morningglory; [12]", "result": 30}, {"measurement": "Plant response rating, Morningglory", "setting": "morningglory; [13]", "result": 10}, {"measurement": "Morningglory plant response rating", "setting": "morningglory; [14]", "result": 60}, {"measurement": "Lambsquarters plant response rating (0 to 100 scale)", "setting": "lambsquarters; [11]", "result": 0}, {"measurement": "Lambsquarters plant response rating", "setting": "lambsquarters; [12]", "result": 60}, {"measurement": "Plant response rating, Lambsquarters", "setting": "lambsquarters; [13]", "result": 100}, {"measurement": "Lambsquarters plant response rating", "setting": "lambsquarters; [14]", "result": 70}, {"measurement": "Blackgrass plant response rating", "setting": "blackgrass; [12]", "result": 10}, {"measurement": "Blackgrass plant response rating", "setting": "blackgrass; [14]", "result": 20}, {"measurement": "Barnyardgrass plant response rating (0 to 100 scale)", "setting": "barnyardgrass [8]; [11]", "result": 0}, {"measurement": "Barnyardgrass plant response rating", "setting": "barnyardgrass [8]; [12]", "result": 10}, {"measurement": "Plant response rating, Barnyardgrass", "setting": "barnyardgrass [8]; [13]", "result": 60}, {"measurement": "Barnyardgrass plant response rating", "setting": "barnyardgrass [8]; [14]", "result": 40}, {"measurement": "Rice plant response rating (0 to 100 scale)", "setting": "rice [9]; 125 g ai/ha", "result": 0}, {"measurement": "Plant response rating, Rice", "setting": "rice [9]; 500 g ai/ha, visual rating", "result": 10}, {"measurement": "Rice plant response rating", "setting": "rice [10]", "result": 70}, {"measurement": "Pigweed plant response rating (0 to 100 scale)", "setting": "pigweed; [11]", "result": 100}, {"measurement": "Pigweed plant response rating", "setting": "pigweed; [12]", "result": 80}, {"measurement": "Plant response rating, Pigweed", "setting": "pigweed; [13]", "result": 100}, {"measurement": "Pigweed plant response rating", "setting": "pigweed; [14]", "result": 90}]}
